Where a SMILES comes first, the peptide text is derived from it. [ ]: non-standard residue; d: D form. Nle = CCCC[C@H](N)C(=O)O
Columns and labels:
[1] = biological target: T1, GRP receptor (Mus musculus, UniProt P21729); test: ^125I-GRP ligand binding assay, detergent solubilized Swiss 3T3 fibroblast membranes; details: for Solubilized Membranes Counts/minute Bound Measured as % of Total Added: 10 µM nucleotide added to control containing MgCl2, 0.075% CHAPS, 0.015% CHS, control 28
T1 construct: endogenous in cells; host or cells: mouse Swiss 3T3 fibroblasts (membranes; intact or solubilized with CHAPS/CHS)
Protocol: Swiss 3T3 fibroblast membranes, prepared in Example 1, were suspended at 15 mg protein/ml in 50 mM HEPES, pH 7.5, 1.0 mM EGTA, 100 mM NaCl, 0.25 M sucrose, 50 µg/ml leupeptin, 5 µg/ml pepstatin, 10 µg/ml aprotinin, 30 µg/ml bacitracin, and 0.5 mM phenylmethylsulfonyl fluoride. A mixture of 3-[(3cholamidopropyl) dimethylammonio]-1- propane sulfonate (CHAPS) and cholesteryl hemisuccinate (CHS) in a ratio of 10:1 was added slowly to yield a final concentration of 0.75% CHAPS. The extract was incubated at 21°C for 30 minutes, cooled to 4°C and the insoluble material was removed by centrifugation at 100,000 x gravity for 60 minutes.
For assays of detergent solubilized membrane extracts, the final CHAPS detergent concentration was adjusted to between 0.050% and 0.20%. The concentration of CHS was maintained at 1/5 to 1/10 the concentration of CHAPS. Samples were also prepared omitting the BSA. After incubation at 15°C for 30 minutes, samples were cooled to 0°C. Bound ligand (^125I-GRP:GRP receptor complex) was recovered by rapid filtration through polyethyleneimine treated Whatman GF/B filters, followed by four washes with 4 mls of ice cold Tris buffer (50 mM Tris/Cl, pH 7.5). The filters were counted in an Isodata 500 gamma counter.
Scatchard analysis of ^125I-GRP binding to intact and solubilized Swiss 3T3 membranes was done. One particular experiment is discussed below, where the binding parameters of the solubilized and the membrane bound form of the receptor are determined under similar conditions.

[2] = biological target: T1, GRP receptor; test: ^125I-GRP ligand binding assay, intact Swiss 3T3 fibroblast membranes; details: 5 µM nucleotide added to control containing MgCl2; control 28.9
Protocol: For assays of detergent solubilized membrane extracts, the final CHAPS detergent concentration was adjusted to between 0.050% and 0.20%. The concentration of CHS was maintained at 1/5 to 1/10 the concentration of CHAPS. Samples were also prepared omitting the BSA. After incubation at 15°C for 30 minutes, samples were cooled to 0°C. […] The filters were counted in an Isodata 500 gamma counter.
One particular experiment is discussed below, where the binding parameters of the solubilized and the membrane bound form of the receptor are determined under similar conditions.

T1 sequence (P21729 whole entry): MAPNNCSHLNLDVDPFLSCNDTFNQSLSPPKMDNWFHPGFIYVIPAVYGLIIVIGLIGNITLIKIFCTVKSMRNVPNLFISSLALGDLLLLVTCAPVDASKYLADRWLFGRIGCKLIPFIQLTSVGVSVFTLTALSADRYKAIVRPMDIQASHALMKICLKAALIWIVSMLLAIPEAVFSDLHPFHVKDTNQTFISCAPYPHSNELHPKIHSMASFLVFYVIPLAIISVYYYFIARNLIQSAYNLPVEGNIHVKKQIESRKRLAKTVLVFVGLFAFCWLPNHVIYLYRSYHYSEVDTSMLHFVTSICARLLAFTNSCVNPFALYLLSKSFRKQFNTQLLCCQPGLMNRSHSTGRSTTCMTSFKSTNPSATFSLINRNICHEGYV

Compound	time at which binding to the soluble receptor leveled off ([1]; 15°C, remained constant for up to 2 hours) [min]	Solubilized Membranes Counts/minute Bound Measured as % of Total Added [1] [%]	Intact Membranes Counts/minute Bound Measured as % of Total Added [2] [%]	IC50 ([1]; unlabeled competitor peptide) [nM]
3-(125Iodotyrosyl15) gastrin releasing peptide [^125I-GRP]	≤ 20			
Nc1ncnc2c1ncn2[C@@H]1O[C@H](COP(=O)(O)OP(=O)(O)NP(=O)(O)O)[C@@H](O)[C@H]1O [AMPPNP]		27.8	33.4	
Nc1ncnc2c1ncn2[C@@H]1O[C@H](COP(=O)(O)OP(=O)(O)OP(=O)(O)O)[C@@H](O)[C@H]1O [ATP]			29.7	
Nc1nc2c(ncn2[C@@H]2O[C@H](COP(=O)(O)OP(=O)(O)NP(=O)(O)O)[C@@H](O)[C@H]2O)c(=O)[nH]1 [GMPPNP]		26.5	10.5	
Nc1nc2c(ncn2[C@@H]2O[C@H](COP(=O)(O)OP(=O)(O)OP(=O)(O)O)[C@@H](O)[C@H]2O)c(=O)[nH]1 [GTP]		27.5	10.7	
CCCC[C@H](NC(=O)[C@H](CC(C)C)NC(=O)[C@H](Cc1c[nH]cn1)NC(=O)CNC(=O)[C@@H](NC(=O)[C@H](C)NC(=O)[C@H](Cc1c[nH]c2ccccc12)NC(=O)[C@H](Cc1c[nH]cn1)NC(=O)[C@H](CC(N)=O)NC(=O)CNC(=O)[C@H](CCCNC(=N)N)NC(=O)[C@@H]1CCCN1C(=O)[C@H](Cc1ccc(O)cc1)NC(=O)[C@H](CCCC)NC(=O)[C@@H](N)CCCCN)C(C)C)C(N)=O [[Nle^14,27]GRP13-27] (H-K[Nle]YPRGNHWAVGHL[Nle]-NH2)				0.3

Reference: patent publication EP0524173B1, “SOLUBILIZATION AND PURIFICATION OF THE GASTRIN RELEASING PEPTIDE RECEPTOR” (BERLEX LABORATORIES, INC., priority 1989, dated 1991)
